± gives the expanded uncertainty stated by the source.
Experiments:
[1] = refractive index (Na D-line) (dimensionless); settings: 101.33 kPa, Liquid, Standard Abbe refractometry
[2] = Liquid; for vapor or sublimation pressure: Ebulliometric method (Recirculating still); for Normal boiling temperature: Distillation

refractive index ([1]; 303.15 K) | refractive index ([1]; 308.15 K) | vapor or sublimation pressure ([2]; 421.95 K) | Normal boiling temperature [2] | refractive index ([1]; 298.15 K) | vapor or sublimation pressure ([2]; 489.08 K) | vapor or sublimation pressure ([2]; 422.25 K) | Compound
1.5295 ± 0.0005 | 1.5288 ± 0.0005 | 20 ± 1.5 kPa | 201.70 ± 2.2 °C |  |  |  | Cc1ccc(O)cc1 [4-methylphenol]
1.4751 ± 0.0005 |  |  | 269.31 ± 2.2 °C | 1.4762 ± 0.0005 | 20 ± 1.5 kPa |  | OCCNCCO [diethanolamine]
 |  |  |  |  |  | 20 ± 1.5 kPa | Cc1cccc(O)c1 [3-methylphenol]
